Data as given in article PMC4977052, “On the Utility of ToxCast™ and ToxPi as Methods for Identifying New Obesogens” (Environmental Health Perspectives, 2016).
Like-named read-outs stand apart in the source and are kept apart here.

Experiments:
GAL4-mPPARγ = biological target: T1, GAL4-mPPARγ (Mus musculus, UniProt P37238); assay: GAL4-mPPARγ antagonism in competition with 50 nM rosiglitazone, transiently transfected COS7 cells; format: cell-based
T1 construct: expressed in transfected cells; host or cells: COS7
T1 sequence (P37238 with tags, fused parts or gaps limits assumed): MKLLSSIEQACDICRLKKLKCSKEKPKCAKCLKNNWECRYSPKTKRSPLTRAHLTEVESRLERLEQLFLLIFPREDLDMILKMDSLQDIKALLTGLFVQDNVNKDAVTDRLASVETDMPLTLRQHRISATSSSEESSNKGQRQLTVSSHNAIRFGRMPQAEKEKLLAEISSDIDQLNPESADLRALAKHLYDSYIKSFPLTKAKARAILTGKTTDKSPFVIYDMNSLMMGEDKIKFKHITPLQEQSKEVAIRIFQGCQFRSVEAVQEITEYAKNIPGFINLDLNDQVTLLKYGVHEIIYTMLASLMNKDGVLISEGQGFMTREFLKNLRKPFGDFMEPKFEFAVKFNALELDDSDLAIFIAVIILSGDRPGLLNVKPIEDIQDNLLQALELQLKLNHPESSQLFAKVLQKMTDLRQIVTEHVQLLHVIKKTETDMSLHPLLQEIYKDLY
Protocol: (§1) pCMX-Gal4, pCMX-Gal4-mPPARγ, and pCMX-Gal4-hRXRα were previously described ([Grün et al. 2006]). Transient transfections were performed in COS7 cells as described ([Chamorro-García et al. 2012]). Briefly, COS7 cells were seeded at 15,000 cells per well in 96-well tissue culture plates in 10% calf bovine serum. The following day, cells were transfected in Opti-MEM at ~ 90% confluency. One microgram of CMX-GAL4 effector plasmid was co-transfected with 5 μg tk-(MH100)4-luciferase reporter and 5 μg of CMX-β-galactosidase transfection control plasmids in Opti-MEM® using Lipofectamine® 2000 reagent (Invitrogen™ Life Technologies, Carlsbad, CA, USA), following the manufacturer’s recommended protocol. All chemicals were solvated in dimethyl sulfoxide (DMSO). After overnight incubation, the medium was replaced with Dulbecco’s Modified Eagle Medium (DMEM; HyClone, Logan, UT, USA), 10% resin charcoal stripped fetal bovine serum (FBS) plus ligands at concentrations indicated in the figure legends for an additional 24 hr. DMSO concentration was maintained at 0.05% across all chemical treatments. Cells were lysed and assayed for luciferase and β-galactosidase activity as previously described ([Forman et al. 1995]). All transfections were performed in triplicate and reproduced in multiple experiments. Data are reported as fold induction or reduction over vehicle ([…]) controls ± SEM (standard error of the mean) using standard propagation of error ([Bevington and Robinson 2003]). […] The EC50, EC10, IC50, and IC10 values from NCGC and ToxCast™ are reported from gain AC50 and AC10 values in the ToxCast™ 2014 release ([Filer et al. 2014]).
(§2) Figure 1 ToxCast™ Chemical Activity on PPARγ. The ability of a graded dose series of ToxCast™ chemicals to (A) activate or (B) antagonize GAL4-mPPARγ was tested in transiently transfected COS7 cells. (A, B) Data points are averages of triplicate transfections (three biological replicates). […] Data are depicted as (A) fold induction or (B) reduction over vehicle (0.05% DMSO) controls ± SEM. (A) ToxCast™ chemicals were tested in 3-fold serial dilutions from 100 μM through 0.137 μM, with the final data point being 0.05% DMSO. Rosiglitazone serves as a positive control activator. (B) ToxCast™ chemicals were tested in 3-fold serial dilutions from 100 μM, in competition with 50 nM rosiglitazone (Rosi). […] (C) EC50, EC10, IC50, and IC10 values calculated from A and B are reported and compared to commercial assays (see Figure S1). Note: ATG, Attagene GAL-PPARγ activation assay; NCGC, GeneBLAzer® agonist (EC values) or antagonist (IC values) assays. Triphenyltin was previously published ([Kanayama et al. 2005]).

COS7 cells = assay: Cytotoxicity in transfected COS7 cells measured as decreased β-galactosidase activity
Protocol: as §1, §2

PPARγ [1] = conditions: cited from earlier work; for AC50: PPARγ, NA = not active; for PPARγ agonists: EC10, NCGC: AC10, ToxCast 2014 release; for EC50: gain AC50, ToxCast 2014 release, read-out: PPARγ agonists: EC50, NCGC
Human PPARγ = conditions: PPARγ direct binding, NA = not active, cited from earlier work
PPARγ [2] = system: PPARγ; parameters: method as in Filer et al. 2014; conditions: ref Filer et al. 2014, cited from earlier work; for AC50: PPARγ, NA = not active, read-out: NCGC Antag. AC50, 2014 Release
PPRE = system: PPRE; parameters: method as in Knudsen et al. 2011; conditions: ToxCast Phase I 2011 release; NA = not active; ref Knudsen et al. 2011; read-out: ATGC PPRE AC50; cited from earlier work
[3] = system: mouse bone marrow-derived mesenchymal stem cells (mBMSCs); format: cell-based; conditions: for Induction of adipogenesis in mBMSCs, doses: lipid accumulation, Nile red/Hoechst; for Induction of adipogenesis in mBMSCs, doses / Adipogenic gene expression (Fabp4, Fsp27, Lpl), QPCR: Figure 2B; for Adipogenic gene expression (Fabp4, Fsp27, Lpl), QPCR: mBMSCs
Protocol: A total of 8 × 10^4 cells/well mouse bone marrow-derived mesenchymal stem cells (mBMSCs) (OriCell™) were seeded in 12-well plates in basic medium: high-glucose DMEM (Hyclone) containing 10% calf bovine serum (Premium Select, Atlanta Biologicals), 100 IU/mL penicillin, 100 μg/mL streptomycin, and 1 mM sodium pyruvate. mBMSCs were induced to differentiate in differentiation media (low glucose αMEM containing 15% fetal bovine serum (Premium Select, Atlanta Biologicals), 100 IU/mL penicillin, 100 μg/mL streptomycin and 2 mM L-glutamine) with adipogenic cocktail (500 μM isometylbutylxanthine, 1 μM dexamethasone, 5 μg/mL insulin) and either 500 nM ROSI, 50 nM TBT or ToxCast™ chemicals (as noted for 3T3-L1 cells) for 14 days, replacing the media every 3 days.
Cells were either fixed in 3.7% formaldehyde in phosphate-buffered saline (PBS) for 30 min at room temperature (RT) for lipid quantitation, or homogenized in TriPure (Roche, Mannheim, Germany) for gene expression analysis. For lipid quantitation, fixed cells were washed twice with PBS and maintained in PBS overnight at 4°C to release residual phenol red. Background of cells were measured prior to staining. Cells were stained with 1 μg/mL Nile red (CAS No. 7385-67-3) (to detect lipid accumulation) and 1 μg/mL Hoechst 33342 (ThermoFisher Scientific) (to detect nuclei as a surrogate for cell number) in PBS for 15 min in the dark at RT and washed twice with PBS. […] Background values of Hoechst and Nile red were subtracted from the RFUs after staining and the ratio RFUNile Red:RFUHoechst was calculated. Data are represented as mean ± SEM. Total RNA was isolated using TriPure (Roche) as recommended by the manufacturer. Reverse transcription and quantitative real-time RT-PCR (QPCR) were performed using Transcriptor RT and SYBR® Green Master Mix (Roche). cDNA was quantitated in a LightCycler® 480 System (Roche Diagnostics, Basel, Switzerland) using primer sets listed in Table S4. Each primer set amplified a single band as determined by gel electrophoresis and melting curve analysis. QPCR data were analyzed using the 2^ΔΔCt method ([Livak and Schmittgen 2001]) relative to ribosomal protein 36b4, normalizing to 0.1% DMSO vehicle. Error bars represent the SEM from four to six biological replicates calculated using standard propagation of error ([Bevington and Robinson 2003]).

[4] = ref Filer et al. 2014, read-out: NCGC Agonist AC50, 2014 Release
[5] = ref Knudsen et al. 2011, read-out: NCGC Agonist AC50, 2011 Release

Row | SMILES | Concentration at which cytotoxicity (decreased β-galactosidase activity) was observed (COS7 cells; transfected COS7 cells, 24 hr) | AC50 (PPARγ [1]; [4]) | AC50 (PPARγ [2]) | PPARγ agonists: EC10, NCGC (PPARγ [1]; ref Filer et al. 2014) | AC50 (PPARγ [1]; [5]) | EC50 (PPARγ [1]; ref Filer et al. 2014) | Induction of adipogenesis in mBMSCs, doses ([3]; 14 days) | Adipogenic gene expression (Fabp4, Fsp27, Lpl), QPCR [3] | other results
1 | O=[N+]([O-])c1cc(C(F)(F)F)c(Cl)c([N+](=O)[O-])c1Nc1ncc(C(F)(F)F)cc1Cl [Fluazinam] | 100 µM | 70 nM | 1300 nM |  |  |  |  |  | IC50 (GAL4-mPPARγ): 7200 nM; AC50 (GAL4-mPPARγ; Activation AC50 (PPARγ antagonists), Cos-7 transient transfection, competition with 50 nM rosiglitazone): 7200 nM; Antagonism of PPARγ (GAL4-mPPARγ; COS7, competition against 50 nM rosiglitazone): weak antagonists; PPARγ antagonists: IC10, Fig 1B (GAL4-mPPARγ; COS7, in competition with 50 nM rosiglitazone, computed from IC50): 4410 nM; Activation COS7 (result in words): PPARγ antagonist (GAL4-mPPARγ; Cos-7 transient transfection, competition with 50 nM rosiglitazone): PPARγ antagonist; AC50 (Human PPARγ; ref Filer et al. 2014, read-out: NVS Agonist AC50, 2014 Release): 260 nM; AC50 (Human PPARγ; ref Knudsen et al. 2011, read-out: NVS Agonist AC50, 2011 Release): 280 nM; PPARγ antagonists: IC10, NCGC (PPARγ [2]; AC10, ToxCast 2014 release): 200 nM; IC50 (PPARγ [2]; read-out: PPARγ antagonists: IC50, NCGC, gain AC50, ToxCast 2014 release): 1270 nM
2 | Fc1ccc(Oc2ccnc3cc(Cl)cc(Cl)c23)cc1 [Quinoxyfen] |  | 40600 nM |  | 2440 nM | 6700 nM | 40600 nM |  |  | AC50 (PPRE): 2800 nM; Adipogenic differentiation of mBMSCs (result in words) ([3]; 14 days, Figure 7): could differentiate these uncommitted stem cells into adipocytes
3 | CCC(C)(C)C(=O)OC1=C(c2ccc(Cl)cc2Cl)C(=O)OC12CCCCC2 [Spirodiclofen] | 100 µM | 1600 nM |  | 170 nM | 2800 nM | 1640 nM | induced adipogenesis at 10 and 20 μM | increases | 
4 | CCC(C)(NC(=O)c1cc(Cl)c(C)c(Cl)c1)C(=O)CCl (stereo not shown) [Zoxamide] |  |  | 400 nM |  |  |  | induced differentiation at 2 and 10 μM | increases | Concentration at which cytotoxicity (decreased β-galactosidase activity) was observed (COS7 cells; African green monkey, 24 h): ≥ 10 µM; Lipid accumulation: TOXIC mark in place of bar [3]: TOXIC; Concentration toxic to mBMSCs ([3]; mouse, 14 days): ≥ 20 µM
